Source: patent US20230167127A1, “COMPOUNDS AND THEIR USE IN THE TREATMENT OF BACTERIAL INFECTION” (Hoffmann-La Roche Inc., priority 2020, published 2023)
Where a name gives a salt, the structure may show the parent alone.

Tested on: Escherichia coli ATCC 25922
Test: 50% growth inhibitory concentration (IC50) determination, Iso-Sensitest broth dilution
Assay type: cell-based
Details: Escherichia coli, ATCC25922, 16 h, strain Escherichia coli ATCC 25922; 10-point broth dilution, optical density at 600 nm over 16 h; read-out: Escherichia coli growth inhibition IC50
How it was run: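 10-point twofold Iso-Sensitest broth dilution (e.g. 50 to 0.097 μM final) with DMSO stocks, incubated at 35±2° C. Growth followed by OD 600 nm every 20 min over 16 h; IC50 derived from growth inhibition during logarithmic phase.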

Row | SMILES | IC50 [nM]
1 | CN(C)CCOc1cc(F)c2c(c1)CC(CNCCC1CN(c3cnc4c(n3)NC(=O)CO4)C(=O)O1)C2 (stereo not shown) [Example 272, 6-[5-[2-[[6-[2-(Dimethylamino)ethoxy]-4-fluoro-2,3-dihydro-H-inden-2-yl]methylamino]ethyl]-2-oxo-1,3-oxazolidin-3-yl]-4H-pyrazino[2,3-b][1,4]oxazin-3-one; formic acid] | < 97.7
2 | CN1CCCC1COc1ccc2c(c1C#N)CC(CNCCC1CN(c3ccc4c(n3)NC(=O)CO4)C(=O)O1)C2 (stereo not shown) [Example 52, 5-[(1-methylpyrrolidin-2-yl)methoxy]-2-[[2-[2-oxo-3-(3-oxo-4H-pyrido[3,2-b][1,4]oxazin-6-yl)-1,3-oxazolidin-5-yl]ethylamino]methyl]-2,3-dihydro-1H-indene-4-carbonitrile; formic acid] | < 97.7
3 | N#Cc1cccc2c1CC(CN[C@H]1C[C@]3(CN(c4ccc5c(n4)NC(=O)CO5)C(=O)O3)C1)C2 (stereo partly drawn) [Example 183, 2-[[[2,4-cis-6-oxo-7-(3-oxo-4H-pyrido[3,2-b][1,4]oxazin-6-yl)-5-oxa-7-azaspiro[3.4]octan-2-yl]amino]methyl]-2,3-dihydro-1H-indene-4-carbonitrile] | 153
4 | CNC(=O)COc1nc(C)c2c(c1C)CC(CNCCC1CN(c3cnc4c(n3)NC(=O)CO4)C(=O)O1)C2 (stereo not shown) [Example 111, 2-[[1,4-dimethyl-6-[[2-[2-oxo-3-(3-oxo-4H-pyrazino[2,3-b][1,4]oxazin-6-yl)-1,3-oxazolidin-5-yl]ethylamino]methyl]-6,7-dihydro-5H-cyclopenta[c]pyridin-3-yl]oxy]-N-methylacetamide] | 489
5 | O=C1COc2ccc(N3C[C@@H](NC4CC(NC5Cc6cccc(F)c6C5)C4)CC3=O)nc2N1 (stereo partly drawn) [Example 24, 6-[(4S)-4-[[3-[(4-fluoro-2,3-dihydro-1H-inden-2-yl)amino]cyclobutyl]amino]-2-oxopyrrolidin-1-yl]-4H-pyrido[3,2-b][1,4]oxazin-3-one] | 1810
6 | Cc1ncc(F)c2c1CC(NC1CC(C3CN(c4cnc5c(n4)NC(=O)CO5)C(=O)O3)C1)C2 (single isomer, unassigned; isomer a) [Example 328, 6-[5-[3-[(4-fluoro-1-methyl-6,7-dihydro-5H-cyclopenta[c]pyridin-6-yl)amino]cyclobutyl]-2-oxo-1,3-oxazolidin-3-yl]-4H-pyrazino[2,3-b][1,4]oxazin-3-one, Isomer A] | 885
7 | CC(=O)N1CC(Oc2cc(F)c3c(c2)CC(CNCCC2CN(c4cnc5c(n4)NC(=O)CO5)C(=O)O2)C3)C1 (stereo not shown) [Example 354, 6-[5-[2-[[6-(1-acetylazetidin-3-yl)oxy-4-fluoro-2,3-dihydro-1H-inden-2-yl]methylamino]ethyl]-2-oxo-1,3-oxazolidin-3-yl]-4H-pyrazino[2,3-b][1,4]oxazin-3-one; formic acid] | 392
8 | N#Cc1cc(OC2CCNC2)cc2c1CC(CNCCC1CN(c3ccc4c(n3)NC(=O)CO4)C(=O)O1)C2 (stereo not shown) [Example 254, 2-[[2-[2-Oxo-3-(3-oxo-4H-pyrido[3,2-b][1,4]oxazin-6-yl)-1,3-oxazolidin-5-yl]ethylamino]methyl]-6-pyrrolidin-3-yloxy-2,3-dihydro-1H-indene-4-carbonitrile; formic acid] | 188
9 | O=C1COc2ccc(N3CC(CCNC4Cc5cccc(Cl)c5C4)OC3=O)nc2N1 (stereo not shown) [Example 3, 6-[5-[2-[(4-chloro-2,3-dihydro-1H-inden-2-yl)amino]ethyl]-2-oxo-1,3-oxazolidin-3-yl]-4H-pyrido[3,2-b][1,4]oxazin-3-one hydrochloride] | 940
10 | N#Cc1cccc2c1CC(CNCCC1CN(c3ccc4c(c3)NC(=O)CO4)C(=O)O1)C2 (stereo not shown) [Example 18, 2-[[2-[2-oxo-3-(3-oxo-4H-1,4-benzoxazin-6-yl)-1,3-oxazolidin-5-yl]ethylamino]methyl]-2,3-dihydro-1H-indene-4-carbonitrile; formic acid] | < 97.7
11 | Cc1ncc(F)c2c1CC(CN[C@H]1C[C@@H](C3CN(c4cnc5c(n4)NC(=O)CO5)C(=O)O3)C1)C2 (stereo partly shown) [Example 362] | 157
12 | Cc1ncc(F)c2c1CC(NCCCC1CN(c3cnc4c(n3)NC(=O)CO4)C(=O)O1)C2 (stereo not shown) [Example 79, 6-[5-[3-[(4-fluoro-1-methyl-6,7-dihydro-5H-cyclopenta[c]pyridin-6-yl)amino]propyl]-2-oxo-1,3-oxazolidin-3-yl]-4H-pyrazino[2,3-b][1,4]oxazin-3-one] | < 97.7
13 | N#Cc1cccc2c1CC(CNCCC1CN(c3ccc4c(n3)NC(=O)CS4)C(=O)O1)C2N (racemic) [Example 247, rac-1,2-trans-1-amino-2-[[2-[2-oxo-3-(3-oxo-4H-pyrido[3,2-b][1,4]thiazin-6-yl)-1,3-oxazolidin-5-yl]ethylamino]methyl]-2,3-dihydro-1H-indene-4-carbonitrile] | < 97.7

Results, then the compound that gave them:

Row | IC50 [nM] | SMILES
14 | 131 | CC(N)COc1cc2c(c(Cl)n1)CC(CNCCC1CN(c3ccc4c(n3)NC(=O)CO4)C(=O)O1)C2 (stereo not shown) [Example 144, 6-[5-[2-[[3-(2-aminopropoxy)-1-chloro-6,7-dihydro-5H-cyclopenta[c]pyridin-6-yl]methylamino]ethyl]-2-oxo-1,3-oxazolidin-3-yl]-4H-pyrido[3,2-b][1,4]oxazin-3-one; formic acid]
15 | 189 | N#Cc1nc(OCCN)cc2c1CC(CNCCC1CN(c3ccc4c(n3)NC(=O)CO4)C(=O)O1)C2 (stereo not shown) [Example 127, 3-(2-aminoethoxy)-6-[[2-[2-oxo-3-(3-oxo-4H-pyrido[3,2-b][1,4]oxazin-6-yl)-1,3-oxazolidin-5-yl]ethylamino]methyl]-6,7-dihydro-5H-cyclopenta[c]pyridine-1-carbonitrile; formic acid]
16 | < 97.7 | CC(C)(N)COc1cc(C#N)c2c(c1)CC(CNCCC1CN(c3ccc4c(n3)NC(=O)CO4)C(=O)O1)C2 (stereo not shown) [Example 203, 6-(2-amino-2-methylpropoxy)-2-(((2-(2-oxo-3-(3-oxo-3,4-dihydro-2H-pyrido[3,2-b][1,4]oxazin-6-yl)oxazolidin-5-yl)ethyl)amino)methyl)-2,3-dihydro-1H-indene-4-carbonitrile; 2,2,2-trifluoroacetic acid]
17 | 123 | CNC(=O)COc1cc(F)c2c(c1)CC(CNCCC1CN(c3ccc4c(n3)NC(=O)CO4)C(=O)O1)C2 (stereo not shown) [Example 69, 2-[[7-fluoro-2-[[2-[2-oxo-3-(3-oxo-4H-pyrido[3,2-b][1,4]oxazin-6-yl)-1,3-oxazolidin-5-yl]ethylamino]methyl]-2,3-dihydro-1H-inden-5-yl]oxy]-N-methylacetamide; formic acid]
18 | 304 | Cc1ccnc2c1CC(CNCCC1CN(c3ccc4c(n3)NC(=O)CO4)C(=O)O1)C2 (stereo not shown) [Example 89, 6-[5-[2-[(4-methyl-6,7-dihydro-5H-cyclopenta[b]pyridin-6-yl)methylamino]ethyl]-2-oxo-1,3-oxazolidin-3-yl]-4H-pyrido[3,2-b][1,4]oxazin-3-one]
19 | 295 | N#Cc1cc(OCC2CNC2)cc2c1CC(CNCCC1CN(c3ccc4c(n3)NC(=O)CO4)C(=O)O1)C2 (stereo not shown) [Example 191, 6-(azetidin-3-ylmethoxy)-2-[[2-[2-oxo-3-(3-oxo-4H-pyrido[3,2-b][1,4]oxazin-6-yl)-1,3-oxazolidin-5-yl]ethylamino]methyl]-2,3-dihydro-1H-indene-4-carbonitrile; 2,2,2-trifluoroacetic acid]
